# System: measles virus
# Test: microbe, parasite or virus in culture
# Details: Measles morbillivirus, 24 h
row,SMILES,MIC50
1,"CCOc1nn(-c2ncc(Br)cc2F)c(C)c1Cc1ccccc1 [example 40, 2-(4-benzyl-3-ethoxy-5-methyl-1H-pyrazol-1-yl)-5-bromo-3-fluoropyridine]",0.5 to 5 µM
2,"Cc1c(Oc2c(F)cccc2F)c(OC(C)C)nn1-c1ccc(C(C)(C)O)cn1 [example 84, 2-(6-(4-(2,6-difluorophenoxy)-3-isopropoxy-5-methyl-1H-pyrazol-1-yl)pyridin-3-yl)propan-2-ol]",0.05 to 0.5 µM
3,"CCc1cnc(-n2nc(OC(C)C)c(Cc3ccccc3)c2C)nc1 [example 139, 2-(4-benzyl-3-isopropoxy-5-methyl-1H-pyrazol-1-yl)-5-ethylpyrimidine]",0.0005 to 0.05 µM
4,"c1ccc(Oc2cn(-c3ncc(C4CC4)cn3)nc2C2CC2)cc1 [example 119, 5-cyclopropyl-2-(3-cyclopropyl-4-phenoxy-1H-pyrazol-1-yl)pyrimidine]",0.0005 to 0.05 µM
5,"CCCCCc1cnc(-n2nc(OCC)c(Cc3ccccc3)c2C)nc1 [example 28, 2-(4-benzyl-3-ethoxy-5-methyl-1H-pyrazol-1-yl)-5-pentylpyrimidine]",> 5 µM
6,"CCc1cnc(-n2nc(OC(C)C)c(Oc3ccc(F)cc3F)c2C)nc1 [example 61, 2-(4-(2,4-difluorophenoxy)-3-isopropoxy-5-methyl-1H-pyrazol-1-yl)-5-ethylpyrimidine]",0.0005 to 0.05 µM
7,"CCOc1nn(-c2ncc(CC)cn2)c(C)c1Oc1ccccc1F [example 73, 2-(3-ethoxy-4-(2-fluorophenoxy)-5-methyl-1H-pyrazol-1-yl)-5-ethylpyrimidine]",0.05 to 0.5 µM
8,"CCOc1nn(-c2ncc(CC)cn2)c(C)c1-c1ccccc1 [example 153, 2-(3-ethoxy-5-methyl-4-phenyl-1H-pyrazol-1-yl)-5-ethylpyrimidine]",0.5 to 5 µM
9,"CCOc1nn(-c2ccc(C3CC3)cn2)c(C)c1C(C)(O)c1ccccc1 (stereo not shown) [example 178, 1-(1-(5-cyclopropylpyridin-2-yl)-3-ethoxy-5-methyl-1H-pyrazol-4-yl)-1-phenylethanol]",0.5 to 5 µM
10,"CCOc1nn(-c2ccc(C3CC3)cn2)c(C)c1Cc1ccccc1 [example 172, 2-(4-benzyl-3-ethoxy-5-methyl-1H-pyrazol-1-yl)-5-cyclopropylpyridine]",0.05 to 0.5 µM
11,"Cc1c(Oc2c(F)cccc2F)c(OC(C)C)nn1-c1ncc(F)cn1 [example 14, 2-(4-(2,6-difluorophenoxy)-3-isopropoxy-5-methyl-1H-pyrazol-1-yl)-5-fluoropyrimidine]",0.05 to 0.5 µM
12,"CC(C)Oc1nn(-c2ncc(C3CC3)cn2)cc1[S+]([O-])c1ccccc1 (stereo not shown) [example 182, 5-cyclopropyl-2-(3-isopropoxy-4-(phenylsulfinyl)-1H-pyrazol-1-yl)pyrimidine]",0.5 to 5 µM
13,"CCOc1c(Cc2ccccc2)c(C)nn1-c1ncc(CC)cn1 [example 26, 2-(4-benzyl-5-ethoxy-3-methyl-1H-pyrazol-1-yl)-5-ethylpyrimidine]",0.5 to 5 µM
14,"c1ccc(Oc2cn(-c3ccc(C4CC4)cn3)nc2C2CC2)cc1 [example 120, 5-cyclopropyl-2-(3-cyclopropyl-4-phenoxy-1H-pyrazol-1-yl)pyridine]",0.05 to 0.5 µM
15,"CCOc1nn(-c2ccc(C3CC3)cn2)c(C)c1Oc1ccccc1F [example 68, 5-cyclopropyl-2-(3-ethoxy-4-(2-fluorophenoxy)-5-methyl-1H-pyrazol-1-yl)pyridine]",0.0005 to 0.05 µM
16,"CCOc1nn(-c2ncc(CC)cn2)cc1I [example 107, 2-(3-ethoxy-4-iodo-1H-pyrazol-1-yl)-5-ethylpyrimidine]",> 5 µM
17,"CCOc1nn(-c2ccc(C(C)(F)F)cn2)c(C)c1Cc1ccccc1 [example 99, 2-(4-benzyl-3-ethoxy-5-methyl-1H-pyrazol-1-yl)-5-(1,1-difluoroethyl)pyridine]",0.5 to 5 µM
18,"Cc1cc(Br)cnc1-n1nc(OC(C)C)c(Oc2c(F)cccc2F)c1C [example 85, 5-bromo-2-(4-(2,6-difluorophenoxy)-3-isopropoxy-5-methyl-1H-pyrazol-1-yl)-3-methylpyridine]",0.5 to 5 µM
19,"CCOc1nn(-c2ccccn2)c2c1CCN(Cc1ccccc1)C2 [example 1, 6-benzyl-3-ethoxy-1-(pyridin-2-yl)-4,5,6,7-tetrahydro-1H-pyrazolo[3,4-c]pyridine]",> 5 µM
20,"Cc1c(Oc2c(F)cccc2F)c(OC(C)C)nn1-c1ccc(C2CC2)nn1 [example 7, 3-cyclopropyl-6-(4-(2,6-difluorophenoxy)-3-isopropoxy-5-methyl-1H-pyrazol-1-yl)pyridazine]",0.0005 to 0.05 µM
21,"Cc1c(Oc2c(F)cccc2F)c(OC(C)C)nn1-c1ncc(C2CC2)cc1C#N [example 46, 5-cyclopropyl-2-(4-(2,6-difluorophenoxy)-3-isopropoxy-5-methyl-1H-pyrazol-1-yl)nicotinonitrile]",0.0005 to 0.05 µM
22,"CCOc1nn(-c2ncc(OC)cn2)c(C)c1Cc1ccccc1 [example 112, 2-(4-benzyl-3-ethoxy-5-methyl-1H-pyrazol-1-yl)-5-methoxypyrimidine]",0.5 to 5 µM
23,"Cc1c(Oc2c(F)cccc2F)c(OC(C)C)nn1-c1ncc(C2CC2)cc1OCc1ccccc1 [example 186, 3-(benzyloxy)-5-cyclopropyl-2-(4-(2,6-difluorophenoxy)-3-isopropoxy-5-methyl-1H-pyrazol-1-yl)pyridine]",0.05 to 0.5 µM

row,SMILES,MIC50
1,"CCOc1nn(-c2ccc(C3CC3)cn2)c(C)c1Oc1cccc(C(F)(F)F)c1 [example 93, 5-cyclopropyl-2-(3-ethoxy-5-methyl-4-(3-(trifluoromethyl)phenoxy)-1H-pyrazol-1-yl)pyridine]",0.05 to 0.5 µM
2,"COc1cc(C2CC2)cnc1-n1cc(Oc2ccccc2F)c(OC(C)C)n1 [example 185, 5-cyclopropyl-2-(4-(2-fluorophenoxy)-3-isopropoxy-1H-pyrazol-1-yl)-3-methoxypyridine]",0.05 to 0.5 µM
3,"CCOc1nn(-c2ncc(CC)cn2)c(C)c1Oc1cc(Cl)ccc1Cl [example 64, 2-(4-(2,5-dichlorophenoxy)-3-ethoxy-5-methyl-1H-pyrazol-1-yl)-5-ethylpyrimidine]",0.0005 to 0.05 µM
4,"CCOc1cc(Cc2ccccc2)n(-c2ccccn2)n1 [example 3, 2-(5-benzyl-3-ethoxy-1H-pyrazol-1-yl)pyridine]",> 5 µM
5,"CC(C)Oc1nn(-c2ncc(C3CC3)cc2F)cc1Oc1ccccc1F [example 66, 5-cyclopropyl-3-fluoro-2-(4-(2-fluorophenoxy)-3-isopropoxy-1H-pyrazol-1-yl)pyridine]",0.0005 to 0.05 µM
6,"CCc1cnc(-n2nc(OCCO)c(Cc3ccccc3)c2C)nc1 [example 193, 2-(4-benzyl-1-(5-ethylpyrimidin-2-yl)-5-methyl-1H-pyrazol-3-yloxy)ethanol]",0.05 to 0.5 µM
7,"CCc1cnc(-n2nc(OC(C)C)c(Oc3cc(F)ccc3F)c2C)nc1 [example 19, 2-(4-(2,5-difluorophenoxy)-3-isopropoxy-5-methyl-1H-pyrazol-1-yl)-5-ethylpyrimidine]",0.0005 to 0.05 µM
8,"COc1cnc(-n2nc(OC(C)C)c(Oc3c(F)cccc3F)c2C)cn1 [example 173, 2-(4-(2,6-difluorophenoxy)-3-isopropoxy-5-methyl-1H-pyrazol-1-yl)-5-methoxypyrazine]",0.5 to 5 µM
9,"CCOc1nn(-c2cccc(C)n2)c(C)c1Cc1ccccc1 [example 33, 2-(4-benzyl-3-ethoxy-5-methyl-1H-pyrazol-1-yl)-6-methylpyridine]",> 5 µM
10,"CCCc1cnc(-n2nc(OC(C)C)c(Oc3c(F)cccc3F)c2C)nc1O [example 117A, 2-(4-(2,6-difluorophenoxy)-3-isopropoxy-5-methyl-1H-pyrazol-1-yl)-5-propylpyrimidin-4-ol]",0.05 to 0.5 µM
11,"Cc1c(Oc2c(F)cccc2F)c(OC(C)C)nn1-c1cnc(C(C)(C)C)nc1 [example 131, 2-tert-butyl-5-(4-(2,6-difluorophenoxy)-3-isopropoxy-5-methyl-1H-pyrazol-1-yl)pyrimidine]",0.05 to 0.5 µM
12,"CCOc1ccn(-c2ncc(CC)cn2)n1 [example 166, 2-(3-ethoxy-1H-pyrazol-1-yl)-5-ethylpyrimidine]",0.5 to 5 µM
13,"CCOc1nn(-c2ccc(C)cn2)c(C)c1Cc1ccccc1 [example 31, 2-(4-benzyl-3-ethoxy-5-methyl-1H-pyrazol-1-yl)-5-methylpyridine]",0.5 to 5 µM
14,"CCc1cnc(-n2[nH]c(=O)c(Cc3ccccc3)c2C)nc1 [example 135, 4-benzyl-1-(5-ethylpyrimidin-2-yl)-5-methyl-1H-pyrazol-3(2H)-one]",0.5 to 5 µM
15,"CCOc1nn(-c2ccc(Cl)cn2)c(C)c1Cc1ccccc1 [example 39, 2-(4-benzyl-3-ethoxy-5-methyl-1H-pyrazol-1-yl)-5-chloropyridine]",0.5 to 5 µM
16,"CCC(C)Oc1nn(-c2ncc(C3CC3)cn2)c(C)c1Cc1ccccc1 (stereo not shown) [example 142, 2-(4-benzyl-3-sec-butoxy-5-methyl-1H-pyrazol-1-yl)-5-cyclopropylpyrimidine]",0.0005 to 0.05 µM
17,"CCOc1nn(-c2ccc(C3CC3)cn2)c(C)c1Oc1ccccc1Br [example 55, 2-(4-(2-bromophenoxy)-3-ethoxy-5-methyl-1H-pyrazol-1-yl)-5-cyclopropylpyridine]",0.0005 to 0.05 µM
18,"CCc1ccc(-n2nc(OC(C)C)c(Cc3ccccc3)c2C)cc1 [example 132, 4-benzyl-1-(4-ethylphenyl)-3-isopropoxy-5-methyl-1H-pyrazole]",0.5 to 5 µM
19,"CCc1cnc(-n2nc(OC(C)C)c(Cc3ccccc3OC)c2C)nc1 [example 101, 5-ethyl-2-(3-isopropoxy-4-(2-methoxybenzyl)-5-methyl-1H-pyrazol-1-yl)pyrimidine]",0.0005 to 0.05 µM
20,"CCOc1nn(-c2ncc(CC)cn2)c(C)c1-c1ccc(OC)cc1 [example 161, 2-(3-ethoxy-4-(4-methoxyphenyl)-5-methyl-1H-pyrazol-1-yl)-5-ethylpyrimidine]",0.5 to 5 µM
21,"CC(C)Oc1nn(-c2ccc(C3CC3)cn2)cc1Sc1ccccc1 [example 105, 5-cyclopropyl-2-(3-isopropoxy-4-(phenylthio)-1H-pyrazol-1-yl)pyridine]",0.05 to 0.5 µM
22,"CC(C)Oc1nn(-c2ncc(C3CC3)cn2)cc1Sc1ccccc1 [example 104, 5-cyclopropyl-2-(3-isopropoxy-4-(phenylthio)-1H-pyrazol-1-yl)pyrimidine]",0.0005 to 0.05 µM
23,"Cc1c(Cc2ccccc2)c(O)nn1-c1ncc(C2CC2)cn1 [example 136, 4-benzyl-1-(5-cyclopropylpyrimidin-2-yl)-5-methyl-1H-pyrazol-3-ol]",0.5 to 5 µM

# Reference: patent EP2929883A1, “Pyrazole derivatives as dihydroorotate dehydrogenase (DHODH) inhibitors” (INSTITUT PASTEUR, priority 2014, dated 2015)
